According to patent EP4603105A1, “PHARMACEUTICAL COMPOSITION CONTAINING CYCLIC COMPOUND HAVING SELECTIVE KRAS INHIBITORY EFFECT AGAINST HRAS AND NRAS” (CHUGAI SEIYAKU KABUSHIKI KAISHA, priority 2022, dated 2024):
Where a SMILES comes first, the peptide text is derived from it. Bridges are numbered along the chain shown (N, C = ends). [ ]: non-standard residue; d: D form. The star is where a group is joined. hPhe(3-Cl-4-CF3) = N[C@@H](CCc1ccc(C(F)(F)F)c(Cl)c1)C(=O)O; NPrPhe(4-CF3) = CCCN[C@@H](Cc1ccc(C(F)(F)F)cc1)C(=O)O; NEtPhe(4-Me) = CCN[C@@H](Cc1ccc(C)cc1)C(=O)O; NMeGly(cPent) = CN[C@H](C(=O)O)C1CCCC1; Aze(3S-Me) = C[C@H]1CN[C@@H]1C(=O)O; Hyp = O=C(O)[C@@H]1C[C@@H](O)CN1; NMeD = CN[C@@H](CC(=O)O)C(=O)O; NMeL = CN[C@@H](CC(C)C)C(=O)O; Morpholide = C1CN(*)CCO1; Ac5c = NC1(C(=O)O)CCCC1; Aze = O=C(O)[C@@H]1CCN1; Ac4c = NC1(C(=O)O)CCC1; X4 = C1CCC(*)OC1; Sar = CNCC(=O)O

How the values were obtained:
[1] = system: human lung cancer strain NCI-H441; format: cell-based
Outline: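 Signal came from […] measured per well once the reagent was added. Beforehand, cells were cultured at 37°C and 5% carbon dioxide on a compound series serially diluted in dimethyl sulfoxide.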

[2] = target: GDP-bound KRAS wild-type protein (Homo sapiens, UniProt P01116); assay: Binding to KRAS by surface plasmon resonance (SPR), dissociation constant KD
Sequence of GDP-bound KRAS wild-type protein (P01116 1-188 isoform P01116-2): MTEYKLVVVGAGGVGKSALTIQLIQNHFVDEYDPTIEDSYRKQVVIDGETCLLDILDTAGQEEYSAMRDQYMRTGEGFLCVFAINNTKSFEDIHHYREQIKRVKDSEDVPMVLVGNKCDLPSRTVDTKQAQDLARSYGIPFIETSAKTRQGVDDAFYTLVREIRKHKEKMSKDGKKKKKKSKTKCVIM
Outline: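 Compound binding is evaluated by SPR single-cycle kinetics, with concentrations added intermittently from low to high for 75 s each. Target surfaces carry GDP-loaded biotinylated Avi-RAS at about 100–300 RU, regenerated after each cycle; temperature 30°C. A 1:1 binding model gives KD.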

[3] = target: GDP-bound NRAS wild-type protein (Homo sapiens, UniProt P01111); assay: Binding to NRAS by surface plasmon resonance (SPR), KD and KD ratio to KRAS
Sequence of GDP-bound NRAS wild-type protein (P01111 whole entry): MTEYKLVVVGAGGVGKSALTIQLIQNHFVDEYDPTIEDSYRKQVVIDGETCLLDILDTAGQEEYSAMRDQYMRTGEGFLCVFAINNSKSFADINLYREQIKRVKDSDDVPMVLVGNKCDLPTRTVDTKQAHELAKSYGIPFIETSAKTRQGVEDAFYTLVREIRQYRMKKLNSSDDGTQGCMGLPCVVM
Outline: (§1)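 Each cycle, GDP-bound biotin-Avi RAS was captured (~100–300 RU), compound concentrations were injected low to high for 75 s each at 100 µL/min, then the chip was regenerated. Buffer: HBS pH 7.4, 10 mM MgCl2, 10 µM GDP, 1 mM DTT, 4% DMSO; 30°C. KD from a 1:1 binding model.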

[4] = target: HRAS wild-type protein (Homo sapiens, UniProt P01112); assay: Binding to HRAS by surface plasmon resonance (SPR), KD and KD ratio to KRAS
Sequence of HRAS wild-type protein (P01112 whole entry): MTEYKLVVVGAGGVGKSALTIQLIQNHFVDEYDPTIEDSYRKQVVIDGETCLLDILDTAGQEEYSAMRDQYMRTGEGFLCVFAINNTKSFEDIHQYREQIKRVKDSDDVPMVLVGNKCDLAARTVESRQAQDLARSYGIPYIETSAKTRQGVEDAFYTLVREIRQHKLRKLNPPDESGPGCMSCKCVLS
Outline: as §1

[5] = ratio of KD for GDP-bound NRAS wild-type protein to KD for KRAS
[6] = ratio of KD for HRAS wild-type protein to KD for KRAS
[7] = Single Cycle Kinetics, 1:1 binding model
[8] = ratio of the KD value with respect to GDP-bound NRAS wild-type protein to the KD value with respect to KRAS
[9] = ratio of the KD value with respect to HRAS wild-type protein to the KD value with respect to KRAS

Row | SMILES | IC50 [1] | Kd ([2]; 1:1 binding model) | NRAS /KRAS [3, 5] | HRAS /KRAS [4, 6] | Kd ([2]; Single Cycle Kinetics) | Kd [2, 7] | NRAS /KRAS [3, 8] | HRAS /KRAS [4, 9]
1 | CC[C@H](C)[C@@H]1NC(=O)[C@H](CC(C)C)N(C)C(=O)C[C@@H](C(=O)N2CCOCC2)N(C)C(=O)[C@H](C2CCCC2)N(C)C(=O)C2(CCCC2)NC(=O)[C@@H]2CCCN2C(=O)[C@H](CCc2ccc(C(F)(F)F)c(Cl)c2)NC(=O)CN(C)C(=O)[C@H](Cc2ccc(C(F)(F)F)cc2)N2CCCCC[C@@H](C2=O)N(C)C(=O)CN(C)C1=O [PP0319] | 23.5 nM | 1.8 nM | B (a compound having 3 or more and less than 10 is denoted as B) | B (a compound having 3 or more and less than 10 is denoted as B) |  |  |  | 
2 | CC[C@H](C)[C@@H]1NC(=O)[C@H](COC)N(C)C(=O)C[C@@H](C(=O)N2CCOCC2)N(C)C(=O)[C@H](C2CCCC2)N(C)C(=O)C2(CCC2)NC(=O)[C@@H]2CC(F)(F)CN2C(=O)[C@H](CCc2cc(F)c(C(F)(F)F)c(F)c2)NC(=O)CN(C)C(=O)[C@H](Cc2ccc(C(F)(F)F)cc2)N2CCCCC[C@@H](C2=O)N(C)C(=O)CN(C)C1=O [PP0834] | 13.6 nM |  | A (a compound having 10 or more and less than 20 is denoted as A) | B (a compound having 3 or more and less than 10 is denoted as B) | 0.19 nM |  |  | 
3 | CCCN1C(=O)CN(C)C(=O)[C@@H]2CCN2C(=O)[C@H]([C@@H](C)CC)NC(=O)[C@H](CC(C)C)N(C)C(=O)C[C@@H](C(=O)N2CCOCC2)N(C)C(=O)[C@H](C2CCCC2)N(C)C(=O)C2(CCCC2)NC(=O)[C@@H]2CCN2C(=O)[C@H](CCc2ccc(C(F)(F)F)c(Cl)c2)NC(=O)CN(C)C(=O)[C@@H]1Cc1ccc(C(F)(F)F)cc1 [PP0307] ([NMeL]I[Aze][Sar][NPrPhe(4-CF3)][Sar][hPhe(3-Cl-4-CF3)][Aze][Ac5c][NMeGly(cPent)][NMeD]-Morpholide; lactam N-11) | 205 nM | 2.1 nM | B (a compound having 3 or more and less than 10 is denoted as B) | B (a compound having 3 or more and less than 10 is denoted as B) |  |  |  | 
4 | CCCN1C(=O)CN(C)C(=O)[C@@H]2CCN2C(=O)[C@H]([C@@H](C)CC)NC(=O)[C@H](CC(C)C)N(C)C(=O)C[C@@H](C(=O)N2CCOCC2)N(C)C(=O)[C@H](C2CCCC2)N(C)C(=O)C2(CCC2)NC(=O)[C@@H]2CCCN2C(=O)[C@H](CCc2ccc(C(F)(F)F)c(Cl)c2)NC(=O)CN(C)C(=O)[C@@H]1Cc1ccc(C(F)(F)F)cc1 [PP0402] ([NMeL]I[Aze][Sar][NPrPhe(4-CF3)][Sar][hPhe(3-Cl-4-CF3)]P[Ac4c][NMeGly(cPent)][NMeD]-Morpholide; lactam N-11) | 58.1 nM |  |  |  |  | 1.2 nM | B (a compound having 3 or more and less than 10 is denoted as B) | C (A compound having a KD ratio of 0.1 or more and less than 3 is denoted as C)
5 | CCO[C@@H]1C[C@H]2C(=O)NC3(CCC3)C(=O)N(C)[C@@H](C3CCCC3)C(=O)N(C)[C@H](C(=O)N(C)C)CC(=O)N(CC)[C@@H](CC(C)C)C(=O)N[C@@H]([C@@H](C)CC)C(=O)N(C)CC(=O)N(C)[C@H]3CC(C)=CCN(C3=O)[C@@H](Cc3ccc(C(F)(F)F)cc3)C(=O)N(C)CC(=O)N[C@@H](CCc3cc(F)c(C(F)(F)F)c(F)c3)C(=O)N2C1 [PP1037] | 296 nM |  | C (A compound having a KD ratio of 0.1 or more and less than 3 is denoted as C) | C (A compound having a KD ratio of 0.1 or more and less than 3 is denoted as C) | 0.76 nM |  |  | 
6 | CC[C@H](C)[C@@H]1NC(=O)[C@H](CC)N(C)C(=O)C[C@@H](C(=O)N2CCOCC2)N(C)C(=O)[C@H](C2CCCC2)N(C)C(=O)C2(CCCC2)NC(=O)[C@@H]2CCCN2C(=O)[C@H](CCc2ccc(C(F)(F)F)c(Cl)c2)NC(=O)CN(C)C(=O)[C@H](Cc2ccc(F)cc2)N2CCCCC[C@@H](C2=O)N(C)C(=O)CN(C)C1=O [PP0959] | 156 nM |  | B (a compound having 3 or more and less than 10 is denoted as B) | B (a compound having 3 or more and less than 10 is denoted as B) | 0.39 nM |  |  | 
7 | C#CC[C@H]1C(=O)N[C@@H]([C@@H](C)CC)C(=O)N(C)CC(=O)N(C)[C@H]2C/C=C\CCN(C2=O)[C@@H](Cc2ccc(C(F)(F)F)cc2)C(=O)N(C)CC(=O)N[C@@H](CCc2ccc(C(F)(F)F)c(OC)c2)C(=O)N2C[C@H](C)[C@H]2C(=O)NC2(CCC2)C(=O)N(C)[C@@H](C2CCCC2)C(=O)N(C)[C@H](C(=O)N2CCOCC2)CC(=O)N1C [PP3133] | 220 nM | 1.1 nM | A (a compound having 10 or more and less than 20 is denoted as A) | A (a compound having 10 or more and less than 20 is denoted as A) |  |  |  | 
8 | CCCN(C)C(=O)[C@@H]1CC(=O)N(C)[C@@H](CC(F)F)C(=O)N[C@@H]([C@@H](C)CC)C(=O)N(C)CC(=O)N(C)[C@H]2C/C=C\CCN(C2=O)[C@@H](Cc2ccc(C(F)(F)F)cc2)C(=O)N(C)CC(=O)N[C@@H](CCc2ccc(C(F)(F)F)c(OC)c2)C(=O)N2C[C@@H](C)C[C@H]2C(=O)NC2(CCC2)C(=O)N(C)[C@@H](C2CCCC2)C(=O)N1C [PP2024] | 10.1 nM |  |  |  |  | 0.082 nM | A (a compound having 10 or more and less than 20 is denoted as A) | B (a compound having 3 or more and less than 10 is denoted as B)
9 | CCCN1C(=O)CN(C)C(=O)[C@@H]2[C@@H](C)CN2C(=O)[C@H]([C@@H](C)CC)NC(=O)[C@H](CC(C)C)N(C)C(=O)C[C@@H](C(=O)N2CCOCC2)N(C)C(=O)[C@H](C2CCCC2)N(C)C(=O)C2(CCCC2)NC(=O)[C@@H]2CCCN2C(=O)[C@H](CCc2ccc(C(F)(F)F)c(Cl)c2)NC(=O)CN(C)C(=O)[C@@H]1Cc1ccc(C(F)(F)F)cc1 [PP0258] ([NMeL]I[Aze(3S-Me)][Sar][NPrPhe(4-CF3)][Sar][hPhe(3-Cl-4-CF3)]P[Ac5c][NMeGly(cPent)][NMeD]-Morpholide; lactam N-11) | 11.3 nM | 0.52 nM | B (a compound having 3 or more and less than 10 is denoted as B) | C (A compound having a KD ratio of 0.1 or more and less than 3 is denoted as C) |  |  |  | 
10 | CCC(CC)[C@H]1C(=O)N(C)[C@H](C(=O)N(C)C)CC(=O)N(C)[C@@H](COC)C(=O)N[C@@H]([C@@H](C)CC)C(=O)N(C)CC(=O)N(C)[C@H]2C/C=C\CCN(C2=O)[C@@H](Cc2ccc(C)cc2)C(=O)N(C)CC(=O)N[C@@H](CCc2ccc(Cl)c(Cl)c2)C(=O)N2CC3(CC3)C[C@H]2C(=O)N(C)C2(CC(C)(C)C2)C(=O)N1C [PP2820] | 62.4 nM | 0.94 nM | AA (a compound having 20 or more is denoted as AA) | A (a compound having 10 or more and less than 20 is denoted as A) |  |  |  | 
11 | CCO[C@@H]1C[C@H]2C(=O)NC3(CC(C)(C)C3)C(=O)N(C)[C@@H](C3CCCC3)C(=O)N(C)[C@H](C(=O)N(C)CC)CC(=O)N(C)[C@@H]([C@@H](C)OC)C(=O)N[C@@H]([C@@H](C)CC)C(=O)N3CCC[C@H]3C(=O)N(C)[C@H]3C/C=C\CCN(C3=O)[C@@H](Cc3ccc(C)cc3)C(=O)N(C)CC(=O)N[C@@H](CCc3ccc(C(F)(F)F)c(OC)c3)C(=O)N2C1 [PP3188] | 64.7 nM | 0.99 nM | A (a compound having 10 or more and less than 20 is denoted as A) | A (a compound having 10 or more and less than 20 is denoted as A) |  |  |  | 
12 | CCO[C@@H]1C[C@H]2C(=O)NC3(CCC3)C(=O)N(C)[C@@H](C3CCCC3)C(=O)N(C)[C@H](C(=O)N(C)C)CC(=O)N(C)[C@@H](CC(C)C)C(=O)N[C@@H]([C@@H](C)CC)C(=O)N(C)CC(=O)N(C)[C@H]3CCCCCN(C3=O)[C@@H](Cc3ccc(C(F)(F)F)cc3)C(=O)N(C)CC(=O)N[C@@H](CCc3cc(F)c(C(F)(F)F)c(F)c3)C(=O)N2C1 [PP0469] | 36.1 nM |  |  |  |  | 0.76 nM | B (a compound having 3 or more and less than 10 is denoted as B) | B (a compound having 3 or more and less than 10 is denoted as B)
13 | CCO[C@@H]1C[C@H]2C(=O)NC3(CC(C)(C)C3)C(=O)N(C)[C@@H](C3CCCC3)C(=O)N(C)[C@H](C(=O)N(C)C)CC(=O)N(C)[C@@H]([C@H](C)OC)C(=O)N[C@@H]([C@@H](C)CC)C(=O)N(C3CC3)CC(=O)N(C)[C@H]3C/C=C\CCN(C3=O)[C@@H](Cc3ccc(C(F)(F)F)cc3)C(=O)N(C)CC(=O)N[C@@H](CCc3ccc(C(F)(F)F)c(Cl)c3)C(=O)N2C1 [PP3177] | 21.6 nM | 0.49 nM | A (a compound having 10 or more and less than 20 is denoted as A) | A (a compound having 10 or more and less than 20 is denoted as A) |  |  |  | 
14 | CC[C@H](C)[C@@H]1NC(=O)[C@H](CC(C)C)N(C)C(=O)C[C@@H](C(=O)N2CCOCC2)N(C)C(=O)[C@H](C2CCCC2)N(C)C(=O)C2(CCCC2)NC(=O)[C@@H]2C[C@@H](OC3CCCCO3)CN2C(=O)[C@H](CCc2ccc(C(F)(F)F)c(Cl)c2)NC(=O)CN(C)C(=O)[C@H](Cc2ccc(C)cc2)N(CC)C(=O)CN(C)C(=O)CN(C)C1=O (some centres unmarked) [PP0068] ([NMeL]I[Sar][Sar][NEtPhe(4-Me)][Sar][hPhe(3-Cl-4-CF3)][Hyp](X4)[Ac5c][NMeGly(cPent)][NMeD]-Morpholide; lactam N-11) | 9.1 nM | 0.14 nM | C (A compound having a KD ratio of 0.1 or more and less than 3 is denoted as C) | C (A compound having a KD ratio of 0.1 or more and less than 3 is denoted as C) |  |  |  | 
